Patent publication US4214093A, “Amino- or guanidino-1,2,3,4-tetrahydro-1-naphthoic esters” (Torii & Co., Ltd., priority 1977, dated 1980)
Where a name gives a salt, the structure may show the parent alone. Read-outs that look alike come from different tables or passages of the source.

What was measured:
Format in all cases: biochemical
Human Plasmin = Human Plasmin (Homo sapiens, UniProt P00747); test: Inhibitory effect on ester-hydrolyzing activity of human plasmin (TAMe substrate); conditions: for inhibitory activity on plasmin: text of Examples; for inhibition at 1000 µM: read-out: Plasmin percent inhibition; for IC50: Table 4 bracketed value, read-out: Plasmin ID50
Chain of Human Plasmin (P00747 581-810 limits assumed): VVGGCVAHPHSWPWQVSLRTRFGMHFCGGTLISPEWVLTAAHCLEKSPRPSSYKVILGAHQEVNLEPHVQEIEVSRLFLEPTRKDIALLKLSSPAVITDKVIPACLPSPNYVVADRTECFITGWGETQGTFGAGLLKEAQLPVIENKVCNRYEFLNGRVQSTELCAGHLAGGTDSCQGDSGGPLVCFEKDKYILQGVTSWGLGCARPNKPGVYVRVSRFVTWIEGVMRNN
Chain of Human Plasmin (P00747 97-580 partner limits assumed): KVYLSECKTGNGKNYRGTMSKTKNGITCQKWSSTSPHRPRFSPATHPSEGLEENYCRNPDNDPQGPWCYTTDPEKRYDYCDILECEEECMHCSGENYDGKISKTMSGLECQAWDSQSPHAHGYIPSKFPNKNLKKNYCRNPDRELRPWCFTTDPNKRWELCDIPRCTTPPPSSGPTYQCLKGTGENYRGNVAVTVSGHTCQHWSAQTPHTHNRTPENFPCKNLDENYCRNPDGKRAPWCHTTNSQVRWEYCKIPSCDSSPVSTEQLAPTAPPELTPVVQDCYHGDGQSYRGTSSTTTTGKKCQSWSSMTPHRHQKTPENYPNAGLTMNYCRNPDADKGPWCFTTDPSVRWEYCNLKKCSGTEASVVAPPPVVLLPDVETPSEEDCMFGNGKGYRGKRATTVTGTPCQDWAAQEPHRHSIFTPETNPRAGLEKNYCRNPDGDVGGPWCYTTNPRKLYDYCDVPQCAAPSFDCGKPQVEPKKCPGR
Procedure: The enzyme-inhibitory activities in vitro of the compounds of this invention were measured by the following procedure according to the method of M. Muramatsu et al. [[…]. […] After the incubation, 1.5 ml of 2 M alkaline hydroxylamine was added and thoroughly mixed, and allowed to stand at room temperature for 15 minutes. […] It was measured by using 0.1 ml of plasmin (generated by activation of plasminogen with streptokinase) and TAMe as substrate following the method described in (1).

Human Plasma Kallikrein = Human Plasma Kallikrein (Homo sapiens, UniProt P03952); test: Inhibitory effect on ester-hydrolyzing activity of human plasma kallikrein (TAMe substrate); conditions: for inhibitory activity on kallikrein: text of Examples; for inhibition at 1000 µM: read-out: Kallikrein percent inhibition; for IC50: Table 4 bracketed value, read-out: Kallikrein ID50
Chain of Human Plasma Kallikrein (P03952 391-638 limits assumed): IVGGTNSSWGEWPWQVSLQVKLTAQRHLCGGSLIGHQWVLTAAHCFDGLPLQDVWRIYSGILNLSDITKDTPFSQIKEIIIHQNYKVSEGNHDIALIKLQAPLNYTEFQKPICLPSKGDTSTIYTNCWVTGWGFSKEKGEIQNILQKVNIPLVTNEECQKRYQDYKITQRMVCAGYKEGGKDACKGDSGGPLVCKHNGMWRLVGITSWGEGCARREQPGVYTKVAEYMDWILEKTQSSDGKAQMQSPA
Chain of Human Plasma Kallikrein (P03952 20-390 partner limits assumed): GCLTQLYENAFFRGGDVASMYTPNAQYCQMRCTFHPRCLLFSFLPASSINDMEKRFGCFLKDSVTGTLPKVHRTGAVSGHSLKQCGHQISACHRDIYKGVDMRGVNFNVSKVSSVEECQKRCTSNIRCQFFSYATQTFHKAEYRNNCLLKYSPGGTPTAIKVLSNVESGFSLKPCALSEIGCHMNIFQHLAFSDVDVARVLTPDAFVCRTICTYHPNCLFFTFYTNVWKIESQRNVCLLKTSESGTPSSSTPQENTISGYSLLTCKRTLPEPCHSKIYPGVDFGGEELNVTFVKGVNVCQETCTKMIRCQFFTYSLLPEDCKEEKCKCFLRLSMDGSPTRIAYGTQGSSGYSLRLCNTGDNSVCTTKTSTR
Procedure: (§1) The enzyme-inhibitory activities in vitro of the compounds of this invention were measured by the following procedure according to the method of M. Muramatsu et al. [[…]. […] After the incubation, 1.5 ml of 2 M alkaline hydroxylamine was added and thoroughly mixed, and allowed to stand at room temperature for 15 minutes.

Bovine Thrombin = Bovine Thrombin (Bos taurus, UniProt P00735); test: Inhibitory effect on ester-hydrolyzing activity of bovine thrombin (TAMe substrate); conditions: for inhibitory activity on thrombin: text of Examples; for inhibition at 1000 µM: at 10^-3 M, in vitro, TAMe, read-out: Thrombin percent inhibition
Procedure: The enzyme-inhibitory activities in vitro of the compounds of this invention were measured by the following procedure according to the method of M. Muramatsu et al. [M. Muramatsu, T. Onishi, S. Makino, Y. Hayashi and S. Fujii: J. Biochem., 58, 214 (1965)]
To 0.1 ml of trypsin (5 μg/ml) were added 0.5 ml of 0.1 M borate buffer solution (pH 8.6) containing 10 mM CaCl2, and 0.1 ml of a varying concentration of an inhibitor solution, and preincubation was carried out at 37° C. for 5 minutes. Then, 10 μmoles of the substrate, TAMe (tosylarginine methyl ester), was added, and incubation was preformed at 37° C. for 30 minutes.
After the incubation, 1.5 ml of 2 M alkaline hydroxylamine was added and thoroughly mixed, and allowed to stand at room temperature for 15 minutes. Then, 1.0 ml of each of 18% trichloroacetic acid, 4 N HCl and 10% FeCl3 was added and thoroughly mixed. If necessary, the mixture was centrifuged at 3,000 rpm for 10 minutes, and the absorbance of the supernatant was measured at 530 nm.
It was measured by using 0.4 ml of bovine thrombin […], 0.02 M sodium phosphate buffer solution (pH 7.4) and TAMe as substrate following the method described in (1).

Human Cl Esterase = molecular target: T1, Human Cl Esterase (Homo sapiens, UniProt P09871); test: Inhibitory effect on ester-hydrolyzing activity of human Cl esterase (ATEe substrate); conditions: for inhibitory activity on Cl-esterase: text of Examples; for inhibition at 1000 µM: read-out: Cl-esterase percent inhibition; for IC50: pH 7.4, Table 4 bracketed value, read-out: Cl-esterase ID50
T1 sequence (P09871 438-688 limits assumed): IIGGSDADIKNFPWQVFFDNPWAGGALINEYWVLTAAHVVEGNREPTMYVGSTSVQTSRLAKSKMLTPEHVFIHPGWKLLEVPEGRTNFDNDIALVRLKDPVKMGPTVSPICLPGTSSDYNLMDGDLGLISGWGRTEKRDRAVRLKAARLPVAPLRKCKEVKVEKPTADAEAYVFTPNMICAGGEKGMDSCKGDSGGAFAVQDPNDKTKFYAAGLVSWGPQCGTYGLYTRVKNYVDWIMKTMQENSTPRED
T1 sequence (P09871 16-437 partner limits assumed): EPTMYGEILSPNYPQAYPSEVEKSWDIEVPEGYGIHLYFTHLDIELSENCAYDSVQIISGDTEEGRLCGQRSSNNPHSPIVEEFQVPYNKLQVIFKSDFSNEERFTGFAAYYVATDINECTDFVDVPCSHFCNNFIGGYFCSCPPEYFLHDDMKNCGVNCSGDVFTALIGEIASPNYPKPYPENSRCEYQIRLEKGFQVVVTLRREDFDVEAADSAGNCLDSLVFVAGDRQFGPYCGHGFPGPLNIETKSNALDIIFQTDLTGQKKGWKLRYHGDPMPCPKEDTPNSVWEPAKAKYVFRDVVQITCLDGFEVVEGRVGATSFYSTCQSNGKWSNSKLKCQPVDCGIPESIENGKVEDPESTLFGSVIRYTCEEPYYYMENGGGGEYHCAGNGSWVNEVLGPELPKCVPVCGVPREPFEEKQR
Procedure: It was measured by using 0.1 ml of Cl esterase, 0.1 ml of 0.02 M sodium phosphate buffer solution (pH 7.4 ) and 10 μmoles of ATEe (acetyltyrosine ethyl ester) as substrate following the method described in (1).

Trypsin = molecular target: T2, Trypsin (Bos taurus, UniProt P00760); test: Inhibitory effect on ester-hydrolyzing activity of trypsin (TAMe substrate); conditions: for inhibition at 1000 µM: read-out: Trypsin percent inhibition
T2 sequence (P00760 24-246): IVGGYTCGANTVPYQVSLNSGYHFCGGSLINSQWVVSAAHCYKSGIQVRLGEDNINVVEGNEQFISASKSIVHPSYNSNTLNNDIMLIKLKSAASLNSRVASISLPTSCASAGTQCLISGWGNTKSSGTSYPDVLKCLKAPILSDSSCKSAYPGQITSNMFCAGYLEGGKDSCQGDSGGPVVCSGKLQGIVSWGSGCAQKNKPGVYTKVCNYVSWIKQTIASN
Procedure: as §1

[1] = in vitro, TAMe, pH 8.6, 37° C., Table 4 bracketed value, read-out: Trypsin ID50

IC50 (Trypsin; [1])	inhibition at 1000 µM (Human Plasmin; at 10^-3 M, in vitro, TAMe)	inhibition at 1000 µM (Bovine Thrombin)	Compound	inhibition at 1000 µM (Human Plasma Kallikrein; at 10^-3 M, in vitro, TAMe)	IC50 (Human Plasmin; in vitro, TAMe)	IC50 (Bovine Thrombin)	inhibition at 1000 µM (Human Cl Esterase)	IC50 (Human Cl Esterase; in vitro, ATEe)	other results
–	–	–	Cl.Nc1ccc2c(c1)C(C(=O)Oc1ccc(Cl)cc1)CCC2 (stereo not shown) [Compound 83, p-chlorophenyl 7-amino-1,2,3,4-tetrahydro-1-naphthoate hydrochloride]	–	–	–	–	–	inhibitory activity on plasmin (Human Plasmin): no inhibitory action; inhibitory activity on kallikrein (Human Plasma Kallikrein): no inhibitory action; inhibitory activity on thrombin (Bovine Thrombin): no inhibitory action; inhibitory activity on Cl-esterase (Human Cl Esterase): no inhibitory action
60 µM	24.6%	40.5%	CCOC(=O)COC(=O)c1ccc(OC(=O)C2CCCc3ccc(N)cc32)cc1 (stereo not shown) [Compound 98]	< 3.2%	–	–	–	–	inhibition at 1000 µM (Human Cl Esterase; at 10^-3 M, in vitro, ATEe): < 3.2%
–	–	–	CN(C)C(=O)COC(=O)CCc1ccc(OC(=O)C2CCCc3ccc(NC(=N)N)cc32)cc1 (stereo not shown) [Compound 158]	–	400 µM	100 µM	–	700 µM	inhibition at 1000 µM (Trypsin): 29.1%; IC50 (Human Plasma Kallikrein; in vitro, TAMe): 420 µM
–	–	–	N=C(N)Nc1ccc2c(c1)C(C(=O)Oc1ccc(OC(=O)C3CCCc4ccc(NC(=N)N)cc43)cc1)CCC2 (stereo not shown) [Compound 160]	–	100 µM	54 µM	–	430 µM	inhibition at 1000 µM (Trypsin): 40.5%; IC50 (Human Plasma Kallikrein; in vitro, TAMe): 230 µM
36 µM	< 3.2%	24.4%	Nc1cccc2c1CCCC2C(=O)Oc1ccc(OC(=O)C2CCCc3c(N)cccc32)cc1 (stereo not shown) [Compound 78]	–	–	–	–	–	IC50 (Human Plasma Kallikrein; in vitro, TAMe): 360 µM; inhibition at 1000 µM (Human Cl Esterase; at 10^-3 M, in vitro, ATEe): 15.2%
130 µM	–	–	N#Cc1ccc(OC(=O)C2CCCc3ccc(NC(=N)N)cc32)cc1 (stereo not shown) [Compound 163]	–	73 µM	17 µM	–	400 µM	IC50 (Human Plasma Kallikrein; in vitro, TAMe): 52 µM
–	–	–	CCOC(=O)COC(=O)CCc1ccc(OC(=O)C2CCCc3ccc(NC(=N)N)cc32)cc1 (stereo not shown) [Compound 157]	–	210 µM	120 µM	–	420 µM	inhibition at 1000 µM (Trypsin): 48.8%; inhibition at 1000 µM (Human Plasma Kallikrein): 48.5%
–	–	–	COc1cccc(OC(=O)C2CCCc3ccc(NC(=N)N)cc32)c1 (stereo not shown) [Compound 139]	–	1000 µM	260 µM	–	450 µM	inhibition at 1000 µM (Trypsin): 46%; inhibition at 1000 µM (Human Plasma Kallikrein): 36.7%
46 µM	16.6%	42.9%	CCOC(=O)c1ccc(OC(=O)C2CCCc3ccc(N)cc32)cc1 (stereo not shown) [Compound 94]	25%	–	–	–	–	inhibition at 1000 µM (Human Cl Esterase; at 10^-3 M, in vitro, ATEe): 3.2%
100 µM	–	–	CCCOC(=O)c1ccc(OC(=O)C2CCCc3ccc(NC(=N)N)cc32)cc1 (stereo not shown) [Compound 151]	–	480 µM	42 µM	–	330 µM	–
–	–	–	Cc1ccc(OC(=O)C2CCCc3ccc(NC(=N)N)cc32)cc1 (stereo not shown) [Compound 136]	–	–	900 µM	–	540 µM	inhibition at 1000 µM (Trypsin): 17.5%; inhibition at 1000 µM (Human Plasmin): < 3.2%; inhibition at 1000 µM (Human Plasma Kallikrein): < 3.2%
320 µM	27.6%	46%	N=C(N)Nc1ccc2c(c1)C(C(=O)Oc1cccc3ccccc13)CCC2 (stereo not shown) [Compound 159]	–	–	–	–	180 µM	IC50 (Human Plasma Kallikrein; in vitro, TAMe): 110 µM
830 µM	13.8%	< 3.2%	N=C(N)Nc1cccc2c1CCCC2C(=O)Oc1cccc2ccccc12 (stereo not shown) [Compound 131]	–	–	–	–	410 µM	IC50 (Human Plasma Kallikrein; in vitro, TAMe): 1000 µM
52 µM	26.2%	22%	CCOC(=O)COC(=O)c1ccc(OC(=O)C2CCCc3c(N)cccc32)cc1 (stereo not shown) [Compound 70]	14.1%	–	–	–	–	inhibition at 1000 µM (Human Cl Esterase; at 10^-3 M, in vitro, ATEe): < 3.2%
–	–	46.7%	CCCOC(=O)c1ccc(OC(=O)C2CCCc3c(NC(=N)N)cccc32)cc1 (stereo not shown) [Compound 123]	–	900 µM	–	–	350 µM	inhibition at 1000 µM (Trypsin; at 10^-3 M, in vitro, TAMe): 45.7%
–	–	–	CCOC(=O)c1ccc(OC(=O)C2CCCc3c(NC(=N)N)cccc32)cc1 (stereo not shown) [Compound 121, ethoxycarbonylphenyl 5-guanidino-1,2,3,4-tetrahydro-1-naphthoate hydrochloride]	–	–	–	–	–	IC50 (Trypsin; Example 6, read-out: ID50, tosylarginine methyl ester hydrolyzing activity of trypsin (unit inferred)): 74 µM
41 µM	< 3.2%	< 3.2%	CCCOC(=O)c1ccc(OC(=O)C2CCCc3c(N)cccc32)cc1 (stereo not shown) [Compound 68]	–	–	–	–	–	inhibition at 1000 µM (Human Cl Esterase; at 10^-3 M, in vitro, ATEe): < 3.2%
68 µM	< 3.2%	25.1%	CCCOC(=O)c1ccc(OC(=O)C2CCCc3ccc(N)cc32)cc1 (stereo not shown) [Compound 96]	–	–	–	–	–	inhibition at 1000 µM (Human Cl Esterase; at 10^-3 M, in vitro, ATEe): < 3.2%

Compound	IC50 (Trypsin; [1])	inhibition at 1000 µM (Human Plasmin; at 10^-3 M, in vitro, TAMe)	inhibition at 1000 µM (Bovine Thrombin)	inhibition at 1000 µM (Human Plasma Kallikrein; at 10^-3 M, in vitro, TAMe)	IC50 (Human Plasmin; in vitro, TAMe)	IC50 (Bovine Thrombin)	inhibition at 1000 µM (Human Cl Esterase)	IC50 (Human Cl Esterase; in vitro, ATEe)	other results
CN(C)C(=O)COC(=O)Cc1ccc(OC(=O)C2CCCc3ccc(N)cc32)cc1 (stereo not shown) [Compound 101]	110 µM	–	–	34.4%	48 µM	300 µM	31.5%	–	–
NC(=O)COC(=O)c1ccc(OC(=O)C2CCCc3c(N)cccc32)cc1 (stereo not shown) [Compound 71]	31 µM	–	–	23.4%	54 µM	62 µM	30.6%	–	–
CN(C)C(=O)COC(=O)c1ccc(OC(=O)C2CCCc3ccc(N)cc32)cc1 (stereo not shown) [Compound 100]	190 µM	–	–	36%	53 µM	40 µM	42%	–	–
COC(=O)c1cccc(OC(=O)C2CCCc3ccc(N)cc32)c1 (stereo not shown) [Compound 92]	98 µM	< 3.2%	–	< 3.2%	–	1000 µM	27.3%	–	–
CN(C)C(=O)COC(=O)c1ccc(OC(=O)C2CCCc3c(N)cccc32)cc1 (stereo not shown) [Compound 72]	25 µM	< 3.2%	–	–	–	120 µM	< 3.2%	–	IC50 (Human Plasma Kallikrein; in vitro, TAMe): 1000 µM
COC(=O)c1ccc(OC(=O)C2CCCc3c(N)cccc32)cc1 (stereo not shown) [Compound 63]	18 µM	35%	–	–	–	1000 µM	16.5%	–	–
CCOC(=O)c1ccc(OC(=O)C2CCCc3c(N)cccc32)cc1.Cl (stereo not shown) [Compound 66, p-ethoxycarbonylphenyl 5-amino-1,2,3,4-tetrahydro-1-naphthoate hydrochloride]	–	4.4%	16.5%	19.9%	–	–	< 3.2%	–	IC50 (Trypsin; in vitro, text of Examples, read-out: ID50, tosylarginine methyl ester hydrolyzing activity of trypsin): 88 µM; inhibitory activity on plasmin (Human Plasmin): no inhibitory activity; inhibitory activity on kallikrein (Human Plasma Kallikrein): no inhibitory activity; inhibitory activity on thrombin (Bovine Thrombin): no inhibitory activity; inhibitory activity on Cl-esterase (Human Cl Esterase): no inhibitory activity
N=C(N)Nc1cccc2c1CCCC2C(=O)Oc1ccc(C(=O)OCC(N)=O)cc1 (stereo not shown) [Compound 126]	75 µM	–	–	46.9%	580 µM	290 µM	30.6%	–	–
